Activity calls are given as the source filed them.
Key:
[1] = molecular target: T1, Zinc finger protein mex-5 (Caenorhabditis elegans, UniProt Q9XUB2); test: potency of MEX-5 RNA-binding blockers – biochemical, C. elegans, fluorescence polarization, dose response (AID 1960)
T1 sequence (Q9XUB2 whole entry): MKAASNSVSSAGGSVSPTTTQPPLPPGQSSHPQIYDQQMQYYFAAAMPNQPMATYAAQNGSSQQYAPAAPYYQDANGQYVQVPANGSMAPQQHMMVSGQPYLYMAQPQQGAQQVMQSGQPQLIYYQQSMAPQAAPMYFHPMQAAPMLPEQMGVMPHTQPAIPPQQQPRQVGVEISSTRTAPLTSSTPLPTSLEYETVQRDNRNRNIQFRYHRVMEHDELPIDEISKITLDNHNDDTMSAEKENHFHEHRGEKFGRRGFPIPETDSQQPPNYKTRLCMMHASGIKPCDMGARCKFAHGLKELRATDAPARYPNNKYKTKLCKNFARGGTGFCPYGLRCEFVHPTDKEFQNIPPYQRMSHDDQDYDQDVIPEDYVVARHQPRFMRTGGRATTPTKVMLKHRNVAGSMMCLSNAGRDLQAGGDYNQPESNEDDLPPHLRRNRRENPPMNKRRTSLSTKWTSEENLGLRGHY

[2] = molecular target: Beta-adrenergic receptor kinase 1 (Homo sapiens, UniProt P25098); test: aptamer displacement from bead-bound GRK2 – biochemical, cherry pick 1, bead flow cytometry, dose response (AID 504500)
Large T antigen = Large T antigen (Simian virus 40, UniProt P03070); format: functional, Betapolyomavirus macacae;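 further: Confirmatory-stage PubChem screen for compounds that inhibit SV40 T antigen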
[3] = molecular target: T2, Heat shock 70 kDa protein 1A (Homo sapiens, UniProt P0DMV8); test: small-molecule inhibition of Hsp70 – biochemical, TR-FRET (AID 786)
[4] = molecular target: T3, RNA-binding protein pos-1 (Caenorhabditis elegans, UniProt G5EF15); test: disruptors of C. elegans POS-1 RNA interaction – biochemical, fluorescence polarization, dose response (AID 1964);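 further: purified POS-1 fused to maltose binding protein made in E. coli; potency of compounds blocking POS-1 binding to fluorescent RNA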
T3 sequence (G5EF15 whole entry): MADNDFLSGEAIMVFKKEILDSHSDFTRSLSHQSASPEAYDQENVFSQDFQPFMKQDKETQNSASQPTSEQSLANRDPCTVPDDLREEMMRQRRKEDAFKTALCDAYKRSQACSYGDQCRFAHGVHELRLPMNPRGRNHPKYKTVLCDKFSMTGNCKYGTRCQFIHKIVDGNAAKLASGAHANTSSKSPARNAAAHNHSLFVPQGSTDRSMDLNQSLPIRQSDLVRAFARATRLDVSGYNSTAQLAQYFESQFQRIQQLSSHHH

[5] = molecular target: T4, Histone-lysine N-methyltransferase NSD2 (Homo sapiens, UniProt O96028); format: biochemical
T4 sequence (O96028 whole entry): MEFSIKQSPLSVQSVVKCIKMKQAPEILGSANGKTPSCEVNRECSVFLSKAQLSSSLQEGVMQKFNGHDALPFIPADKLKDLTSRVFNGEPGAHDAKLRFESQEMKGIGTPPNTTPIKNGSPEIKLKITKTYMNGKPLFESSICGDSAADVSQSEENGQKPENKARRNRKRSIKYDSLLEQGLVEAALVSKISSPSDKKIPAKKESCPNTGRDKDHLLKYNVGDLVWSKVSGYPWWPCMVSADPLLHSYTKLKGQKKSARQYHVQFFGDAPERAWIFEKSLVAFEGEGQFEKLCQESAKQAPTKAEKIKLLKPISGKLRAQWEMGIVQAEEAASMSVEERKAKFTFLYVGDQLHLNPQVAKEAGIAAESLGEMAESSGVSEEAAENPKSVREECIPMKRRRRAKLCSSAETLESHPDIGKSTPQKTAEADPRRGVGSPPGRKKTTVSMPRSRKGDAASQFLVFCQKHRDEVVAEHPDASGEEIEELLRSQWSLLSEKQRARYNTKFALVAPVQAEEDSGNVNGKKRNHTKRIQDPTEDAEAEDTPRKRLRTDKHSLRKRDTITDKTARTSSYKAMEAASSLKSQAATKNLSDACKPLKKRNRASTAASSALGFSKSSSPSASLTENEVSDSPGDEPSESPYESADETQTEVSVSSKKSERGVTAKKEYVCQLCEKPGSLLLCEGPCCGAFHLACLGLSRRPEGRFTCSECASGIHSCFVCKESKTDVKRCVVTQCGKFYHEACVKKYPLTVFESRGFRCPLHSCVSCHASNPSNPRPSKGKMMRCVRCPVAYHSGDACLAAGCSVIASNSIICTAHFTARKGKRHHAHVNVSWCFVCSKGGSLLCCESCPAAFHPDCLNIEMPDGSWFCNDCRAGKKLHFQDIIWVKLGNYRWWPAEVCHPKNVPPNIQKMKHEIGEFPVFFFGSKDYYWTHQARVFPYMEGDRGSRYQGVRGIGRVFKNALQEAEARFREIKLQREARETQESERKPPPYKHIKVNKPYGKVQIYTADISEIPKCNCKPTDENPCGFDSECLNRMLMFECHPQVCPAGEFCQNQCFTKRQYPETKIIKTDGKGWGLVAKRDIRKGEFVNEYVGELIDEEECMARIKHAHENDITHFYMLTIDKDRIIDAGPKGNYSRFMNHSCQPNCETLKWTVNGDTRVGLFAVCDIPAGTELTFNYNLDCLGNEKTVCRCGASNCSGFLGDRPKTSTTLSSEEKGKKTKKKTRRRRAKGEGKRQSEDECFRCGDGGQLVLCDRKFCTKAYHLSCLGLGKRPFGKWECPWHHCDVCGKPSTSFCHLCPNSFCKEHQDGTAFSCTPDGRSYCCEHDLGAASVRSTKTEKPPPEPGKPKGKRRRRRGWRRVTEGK

Troponin, cardiac muscle = Troponin, cardiac muscle (Homo sapiens, UniProt P19429+P45379+P63316); test: compounds desensitizing RTF to calcium – biochemical, fluorescence, cardiac regulated thin filaments, triplicate IC50, dose response (AID 504742); format: protein-complex assay
[6] = molecular target: T5, Rac GTPase-activating protein 1 (Homo sapiens, UniProt Q9H0H5); test: blockers of MgcRacGAP-driven Rac1 GTP hydrolysis – biochemical, ADP Hunter fluorescence, primary and confirmatory, confirmation (AID 624330); format: functional
T5 sequence (Q9H0H5 whole entry): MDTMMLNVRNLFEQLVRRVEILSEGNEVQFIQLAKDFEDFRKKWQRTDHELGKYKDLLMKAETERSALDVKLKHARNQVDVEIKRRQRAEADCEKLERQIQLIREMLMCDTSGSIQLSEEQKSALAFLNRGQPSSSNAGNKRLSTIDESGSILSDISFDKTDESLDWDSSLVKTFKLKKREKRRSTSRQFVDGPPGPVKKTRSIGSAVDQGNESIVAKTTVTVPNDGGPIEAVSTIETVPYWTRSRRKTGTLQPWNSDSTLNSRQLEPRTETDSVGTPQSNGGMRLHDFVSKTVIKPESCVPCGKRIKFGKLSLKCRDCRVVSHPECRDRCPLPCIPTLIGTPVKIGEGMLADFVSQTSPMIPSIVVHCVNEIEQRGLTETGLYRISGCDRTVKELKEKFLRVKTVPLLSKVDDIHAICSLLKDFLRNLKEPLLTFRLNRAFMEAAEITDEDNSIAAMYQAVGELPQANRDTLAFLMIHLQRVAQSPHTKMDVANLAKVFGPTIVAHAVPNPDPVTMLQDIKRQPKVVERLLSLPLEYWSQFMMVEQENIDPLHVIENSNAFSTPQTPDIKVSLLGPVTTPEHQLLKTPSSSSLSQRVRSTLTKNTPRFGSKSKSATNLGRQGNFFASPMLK

[7] = viability loss in THP-1 monocytes – THP-1 cells, cytotoxicity control for Vif-APOBEC3G degradation inhibitor project, dose response (AID 1117359); format: functional; settings: THP-1
ORF 73 = ORF 73 (Human herpesvirus 8, UniProt O40947); test: KSHV LANA DNA-binding disruption – biochemical, fluorescence polarization, cherry-picked samples, dose response (AID 504725); parameters: species or system Human gammaherpesvirus 8;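 further: fluorescence polarization of a labeled DNA duplex reporting LANA DNA binding; potency is for inhibitors that block LANA binding to the DNA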
[8] = molecular target: T2, Heat shock 70 kDa protein 1A; test: small molecules displacing fluorescent ligand from Hsp70 – biochemical, fluorescence polarization, primary screen (AID 583)
[9] = molecular target: DNA (cytosine-5)-methyltransferase 1 (Homo sapiens, UniProt P26358); test: inhibition of DNA methylation by DNMT1 – biochemical, fluorescent molecular beacon, confirmation (AID 602386); format: functional
[10] = molecular target: Induced myeloid leukemia cell differentiation protein Mcl-1 (Homo sapiens, UniProt Q07820); format: functional
CHO-K1 = test: (§1) Counterscreen for antagonists of the orexin 1 receptor (OX1R; HCRTR1): Homogeneous time resolved fluorescence (HTRF)-based cell-based dose response assay to identify antagonists of the parental CHO-K1 cell line. [Related pubchem assays (depositor defined):AID434989, AID435008, AID463079, AID485270, AID492963, AID492964, AID492965, AID493232, AID504699, AID504701]; format: functional; settings: Cricetulus griseus
Orexin receptor type 2 [11] = molecular target: T6, Orexin receptor type 2 (Homo sapiens, UniProt O43614); test: Counterscreen assay for antagonists of the orexin 1 receptor (OX1R; HCRTR1): Fluorescence-based cell-based dose response assay for antagonists of the orexin 2 receptor (OX2R; HCRTR2), run by assay provider.; format: functional
Orexin receptor type 2 [12] = molecular target: T6, Orexin receptor type 2; test: Counterscreen assay for antagonists of the orexin 1 receptor (OX1R; HCRTR1): Homogeneous Time Resolved Fluorescence (HTRF)-based cell-based dose response assay for antagonists of the orexin 2 receptor (OX2R; HCRTR2), run by assay provider.; format: functional
[13] = molecular target: T7, Orexin/Hypocretin receptor type 1 (Homo sapiens, UniProt O43613); test: Homogeneous Time Resolved Fluorescence (HTRF)-based cell-based high throughput dose response assay for antagonists of the orexin 1 receptor (OX1R; HCRTR1). [Related pubchem assays (depositor defined):AID434989, AID435008, AID463079, AID485270, AID492963, AID492964, AID492965, AID493232, AID504717, AID504718]; format: functional
T7 sequence (O43613 whole entry): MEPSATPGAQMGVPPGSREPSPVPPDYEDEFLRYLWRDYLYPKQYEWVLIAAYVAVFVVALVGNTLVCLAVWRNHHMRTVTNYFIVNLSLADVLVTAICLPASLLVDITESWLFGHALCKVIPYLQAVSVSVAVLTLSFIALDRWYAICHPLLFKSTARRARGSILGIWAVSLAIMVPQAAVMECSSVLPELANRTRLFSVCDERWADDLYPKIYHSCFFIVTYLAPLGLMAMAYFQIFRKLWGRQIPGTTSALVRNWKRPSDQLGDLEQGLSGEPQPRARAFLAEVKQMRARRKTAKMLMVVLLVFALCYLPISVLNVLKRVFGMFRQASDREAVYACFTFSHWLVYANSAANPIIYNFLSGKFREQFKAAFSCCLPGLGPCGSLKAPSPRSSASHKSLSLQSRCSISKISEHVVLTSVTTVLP

[14] = molecular target: T8, Polyadenylate-binding protein 1 (Homo sapiens, UniProt P11940); test: MLLE domain peptide-binding blockers, IC50 – biochemical, fluorescence polarization, FITC-PAM2 peptide, dose response (AID 602259); format: functional; settings: read-out: IC50_Mean
[15] = molecular target: T8, Polyadenylate-binding protein 1; test: MLLE binding blockers, Cy5 peptide tracer – biochemical, fluorescence polarization, Cy5-PAM2 peptide, secondary, miRNA deadenylation inhibitor project, dose response (AID 602260); format: functional; settings: read-out: IC50_Mean
[16] = molecular target: T7, Orexin/Hypocretin receptor type 1; test: Fluorescence-based cell-based high throughput dose response assay for antagonists of the orexin 1 receptor (OX1R; HCRTR1). [Related pubchem assays (depositor defined):AID434989, AID435008, AID463079, AID485270, AID492963, AID492964, AID492965, AID493232, AID504717, AID504718]; format: functional
[17] = as §1, with “Fluorescence-based” for “Homogeneous time resolved fluorescence (HTRF)-based”, “cell-based high throughput” for “cell-based”, “CHO” for “CHO-K1”; format: functional
[18] = molecular target: Cyclin-dependent kinase 5/CDK5 activator 1 (Homo sapiens, UniProt Q00535); test: human CDK5 activity blockade – biochemical, microfluidic mobility shift, dry powder, selectivity assay for GSK-3 alpha inhibitor project, dose response (AID 588430)
[19] = molecular target: Glycogen synthase kinase-3 alpha (Homo sapiens, UniProt P49840); test: Inhibition of Human GSK-3 alpha Activity Measured in Biochemical System Using Microfluidics - 2063-06_Inhibitor_Dose_DryPowder_Activity_Set2. [Related pubchem assays (depositor defined):AID2709]
[20] = molecular target: Glycogen synthase kinase-3 beta (Homo sapiens, UniProt P49841); test: Inhibition of Human GSK-3 beta Activity Measured in Biochemical System Using Microfluidics - 2063-05_Inhibitor_Dose_DryPowder_Activity_Set2. [Related pubchem assays (depositor defined):AID2709]
[21] = molecular target: Dual specificity protein kinase CLK1 (Homo sapiens, UniProt P49759); test: inhibition of human CLK1 activity – biochemical, cherry-picked samples, selectivity assay for Dyrk1A inhibitor project, dose response (AID 588811)
[22] = molecular target: Cyclin-dependent kinase 2 (Homo sapiens, UniProt P24941); test: inhibition of human CDK2/cyclin A – biochemical, cherry-picked samples, selectivity assay for Dyrk1A inhibitor project, dose response (AID 602127)
Candida albicans [23] = test: Candida growth inhibition combined with fluconazole – CaCi-2 strain, Alamar Blue, dry powder, set 3, dose response (AID 488907); format: functional, organism-based
Candida albicans [24] = test: resistant Candida growth with fluconazole co-treatment – CaCi-8 strain, Alamar Blue, dry powder, set 3, dose response (AID 488905); format: functional, organism-based

CC1=NN(c2cccc(C(=O)O)c2)C(=O)/C1=C\C=C\c1ccco1
inconclusive: EC50 [1] 23.7 µM
inactive: EC50 [2] 14.8 µM | IC50 (Troponin, cardiac muscle) 15 µM
active: IC50 (Large T antigen) 27.6 µM | IC50 [3] 17.4 µM | EC50 [4] 19.9 µM | AC50 [5] 2.19 µM | IC50 [6] 66.7 µM | CC50 [7] > 40 µM | AC50 (ORF 73) 18 µM | IC50 [8] 21.7 µM | IC50 [9] 1.18 µM | IC50 [10] 4.73 µM

CCN1C(=O)/C(=C2/SC(C)=C(C)N2CC)SC1=S
active: IC50 [13] 3.15 µM
inactive: IC50 (CHO-K1) > 66.2 µM | IC50 (Orexin receptor type 2 [11]) > 88.8 µM | IC50 (Orexin receptor type 2 [12]) > 50 µM | IC50 [14] > 66 µM | IC50 [15] > 66 µM | IC50 [16] 14.7 µM | IC50 [17] > 49.8 µM

O=C(CSc1ccc2nnc(-c3cccs3)n2n1)N1CCCC1
active: AC50 [18] 78.4 µM | AC50 [19] 2.08 µM | AC50 [20] 0.742 µM

c1cncc(CNc2nccc(-c3ccc4[nH]ncc4c3)n2)c1
active: AC50 [21] 0.0402 µM | AC50 [22] 3.52 µM

Cc1ccc(C(=O)N2CCN(c3ccccn3)CC2)cc1
active: AC50 (Candida albicans [23]) 0.0979 µM | AC50 (Candida albicans [24]) 10.4 µM
